From US7829721B2, “Specific caspase-10 inhibitors” (Merck Patent GmbH, priority 2004, dated 2010)

Tests used:
caspase 8 = caspase 8 (Homo sapiens, UniProt Q14790); assay: Caspase inhibition, delayed-time fluorescence method (europium substrate Eu-W1284-CIETDK-QSy-7)
Protocol: (§1) The substrate used is a tetrapeptide specific to this caspase, having at one of its ends a fluorescent europium marker (W1284) and at the other end a europium chelate fluorescence quencher (QSy-7): Eu-W1284-CIETDK-QSy-7.
(§2) The caspase cleaves the substrate, releasing the quencher. Thus, by excitation at 340 nm, the signal emitted by the fluorescence of the europium is read by WALLAC Victor^2 reader at 615 nm.
They are ready for use or can be divided into aliquots and stored at −80° C. […] 20 μl of this solution are distributed per well of the assay plate. […] The assay is performed with 1 U of enzyme per well, by distributing 20 μl of the diluted solution per well. • The standard inhibitors: The standard inhibitors are dissolved in DMSO to a concentration of 10 mM. They are tested at IC20 and at IC50 on the caspases they inhibit (see following table). The concentrations mentioned in the table are the final concentrations in the assay wells.
(§3) They are then distributed in the wells using this solution to reach the final concentration of IC20 or IC50, i.e. 3 μl in 33 μl of final reaction volume (dilution 1/11). Thus, the final concentration of DMSO in the well is 0.3% (v/v) final. […] An intermediate dilution (1/6.6) is pre-pared in DMSO by diluting 10 μl of the concentrated solution in 66 μl of DMSO (final volume). […] The inhibitors are then distributed in the wells to reach the final screening concentration (10 μM), i.e. 3 μl in 33 μl of final reaction volume (dilution 1/11) and a final concentration of DMSO of 0.3% (v/v) in the well.
The volumes and the protocol were optimised for automated use.
(§4) The incubation takes place for 3 hours 30 minutes at room temperature before reading the fluorescence in delayed time on the WALLAC Victor^2 reader with the filters corresponding to the fluorescence of europium (excitation filter: 340 nm, emission filter: 615 nm).
(§5) The inhibitors are diluted using solutions with concentrations of less than 20 mM in DMSO, and then prediluted in the caspase buffer.

caspase 2 = target: T1, caspase 2 (Homo sapiens, UniProt P42575); assay: Caspase inhibition, delayed-time fluorescence method (europium substrate Eu-W1284-CDEVDK-QSy-7)
T1 sequence (P42575 170-325 limits assumed): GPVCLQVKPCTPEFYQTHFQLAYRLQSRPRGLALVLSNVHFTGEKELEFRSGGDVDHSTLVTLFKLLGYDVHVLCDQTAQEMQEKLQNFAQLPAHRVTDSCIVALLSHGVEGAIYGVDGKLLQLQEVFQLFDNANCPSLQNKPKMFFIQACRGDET
T1 sequence (P42575 348-452 limits assumed): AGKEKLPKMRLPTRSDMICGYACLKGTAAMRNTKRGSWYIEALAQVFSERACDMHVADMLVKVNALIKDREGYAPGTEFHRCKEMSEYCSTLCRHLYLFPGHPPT

caspase 9 = target: T2, caspase 9 (Homo sapiens, UniProt P55211); assay: Caspase inhibition, delayed-time fluorescence method (europium substrate Eu-W1284-CLEHDK-QSy-7)
T2 sequence (P55211 1-315 limits assumed): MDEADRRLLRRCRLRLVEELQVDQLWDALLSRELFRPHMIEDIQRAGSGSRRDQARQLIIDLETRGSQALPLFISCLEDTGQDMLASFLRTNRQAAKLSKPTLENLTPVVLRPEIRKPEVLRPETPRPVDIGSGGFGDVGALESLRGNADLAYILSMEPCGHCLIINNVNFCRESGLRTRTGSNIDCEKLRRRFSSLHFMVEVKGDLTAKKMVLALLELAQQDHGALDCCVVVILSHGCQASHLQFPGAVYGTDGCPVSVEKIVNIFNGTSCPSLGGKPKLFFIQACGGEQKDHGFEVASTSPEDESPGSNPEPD
T2 sequence (P55211 331-416 limits assumed): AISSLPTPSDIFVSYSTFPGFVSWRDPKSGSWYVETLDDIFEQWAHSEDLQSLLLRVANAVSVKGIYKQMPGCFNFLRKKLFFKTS

caspase 6 = target: T3, caspase 6 (Homo sapiens, UniProt P55212); assay: Caspase inhibition, delayed-time fluorescence method (europium substrate Eu-W1284-CVEIDK-QSy-7)
T3 sequence (P55212 24-179 limits assumed): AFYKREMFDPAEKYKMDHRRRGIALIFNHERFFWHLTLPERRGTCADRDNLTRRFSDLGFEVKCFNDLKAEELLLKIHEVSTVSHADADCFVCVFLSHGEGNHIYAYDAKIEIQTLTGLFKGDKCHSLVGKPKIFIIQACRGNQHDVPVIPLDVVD
T3 sequence (P55212 194-293 limits assumed): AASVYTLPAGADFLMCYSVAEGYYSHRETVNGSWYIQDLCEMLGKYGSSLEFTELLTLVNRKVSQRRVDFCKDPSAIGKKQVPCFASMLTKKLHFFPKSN

caspase-10 = target: T4, caspase-10 (Homo sapiens, UniProt Q92851); assay: Caspase inhibition, delayed-time fluorescence method (europium substrate Eu-W1284-CIETDK-QSy-7)
T4 sequence (Q92851 220-415 limits assumed): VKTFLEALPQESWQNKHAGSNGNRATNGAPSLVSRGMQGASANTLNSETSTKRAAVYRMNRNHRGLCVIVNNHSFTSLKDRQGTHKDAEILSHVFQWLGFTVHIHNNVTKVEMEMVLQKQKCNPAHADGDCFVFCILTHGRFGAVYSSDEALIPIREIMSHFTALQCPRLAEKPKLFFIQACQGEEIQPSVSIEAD
T4 sequence (Q92851 416-521 limits assumed): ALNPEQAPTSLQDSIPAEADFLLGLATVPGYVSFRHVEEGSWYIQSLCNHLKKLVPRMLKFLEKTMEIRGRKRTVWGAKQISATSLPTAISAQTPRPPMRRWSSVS
Protocol: as §1, §2
20 μl of this solution are distributed per well of the assay plate. […] The assay is performed with 1 U of enzyme per well, by distributing 20 μl of the diluted solution per well. • The standard inhibitors: The standard inhibitors are dissolved in DMSO to a concentration of 10 mM.
as §3, §4, §5

caspase 3 = target: T5, caspase 3 (Homo sapiens, UniProt P42574); assay: Caspase inhibition, delayed-time fluorescence method (europium substrate Eu-W1284-CDEVDK-QSy-7)
T5 sequence (P42574 29-175 limits assumed): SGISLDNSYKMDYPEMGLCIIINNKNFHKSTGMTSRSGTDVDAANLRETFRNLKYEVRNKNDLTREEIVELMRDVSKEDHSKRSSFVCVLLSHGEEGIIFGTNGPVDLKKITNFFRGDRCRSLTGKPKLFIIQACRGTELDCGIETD
T5 sequence (P42574 176-277 limits assumed): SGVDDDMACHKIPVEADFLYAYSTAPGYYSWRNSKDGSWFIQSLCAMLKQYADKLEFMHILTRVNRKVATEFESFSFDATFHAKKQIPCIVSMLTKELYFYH

diabetic rats = conditions: cited from earlier work

Sequence of caspase 8 (Q14790 217-374 limits assumed): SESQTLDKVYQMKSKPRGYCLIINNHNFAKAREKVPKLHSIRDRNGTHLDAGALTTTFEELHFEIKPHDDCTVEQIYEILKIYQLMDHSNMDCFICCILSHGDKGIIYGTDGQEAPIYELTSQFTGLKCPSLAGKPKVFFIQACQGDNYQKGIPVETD
Sequence of caspase 8 (Q14790 385-479 limits assumed): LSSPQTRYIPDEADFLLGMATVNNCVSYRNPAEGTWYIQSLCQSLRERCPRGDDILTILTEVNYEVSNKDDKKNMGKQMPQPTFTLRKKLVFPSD

In the case of `Cc1ccc(-c2ccc(Cl)cc2CC(=O)O)cc1` [Example 12, (4-chloro-4′-methylbiphenyl-2-yl)acetic acid], the IC50 (caspase 8) is reported as over 200 µM, the IC50 (caspase 2) is reported as over 200 µM and the IC50 (caspase 9) is reported as over 200 µM. It also gave an IC50 (caspase 6) of over 200 µM, an IC50 (caspase-10) of 13.1 µM and an IC50 (caspase 3) of over 200 µM.
For `O=C(O)Cc1cc(Cl)ccc1-c1ccc(Cl)cc1` [Example 14, (4,4′-dichlorobiphenyl-2-yl)acetic acid], the IC50 (caspase 8) was over 200 µM, the IC50 (caspase 2) was over 200 µM and the IC50 (caspase 9) was over 200 µM. It also gave an IC50 (caspase 6) of over 200 µM, an IC50 (caspase-10) of 10.1 µM and an IC50 (caspase 3) of over 200 µM.
`O=C(O)Cc1cc(Cl)ccc1-c1ccc(C(F)(F)F)cc1` [Example 15, [4-chloro-4′-(trifluoromethyl)biphenyl-2-yl]acetic acid] gave an IC50 (caspase 8) of over 200 µM, an IC50 (caspase 2) of over 200 µM and an IC50 (caspase 9) of over 200 µM. The IC50 (caspase 6) was over 200 µM, the IC50 (caspase-10) was 23.6 µM and the IC50 (caspase 3) was over 200 µM.
`COc1ccc(-c2ccc(Cl)cc2CC(=O)O)cc1` [Example 16, (4-chloro-4′-methoxybiphenyl-2-yl)acetic acid] gave an IC50 (caspase 8) of over 200 µM, an IC50 (caspase 2) of over 200 µM and an IC50 (caspase 9) of over 200 µM. For the same molecule, the IC50 (caspase 6) was over 200 µM, the IC50 (caspase-10) was 9 µM and the IC50 (caspase 3) was over 200 µM.
For `N=C(N)NN` [aminoguanidine], the “reduced formation of acellular capillaries” value (diabetic rats; diabetic rats treated for 26 weeks) is given as 80%.
In the case of `Cc1ncc(CO)c(CN)c1O` [pyridoxamine], the “death of the pericytes” value (diabetic rats; diabetic rats treated for 29 weeks, versus untreated rats) is listed as “prevents the death of the pericytes”.
